Laboratory results taken from publication PMC8297476 (Biochemistry, 2021).

Assays:
adenylate kinase (AdK) [1] = target: T1, adenylate kinase (AdK) (Escherichia coli, UniProt P69441); assay: steady-state enzyme kinetics; assay type: biochemical; conditions: cited from earlier work
adenylate kinase (AdK) [2] = target: T1, adenylate kinase (AdK); assay: isothermal titration calorimetry; assay type: binding

T1 sequence (P69441 whole entry): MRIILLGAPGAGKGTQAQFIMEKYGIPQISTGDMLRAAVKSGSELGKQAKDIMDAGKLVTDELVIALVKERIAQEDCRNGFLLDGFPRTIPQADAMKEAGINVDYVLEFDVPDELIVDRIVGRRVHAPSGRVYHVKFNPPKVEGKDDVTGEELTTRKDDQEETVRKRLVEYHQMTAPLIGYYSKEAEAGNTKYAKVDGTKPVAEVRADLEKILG

| SMILES | Km (adenylate kinase (AdK) [1]) [µM] | Kd (adenylate kinase (AdK) [2]) [µM] |
| --- | --- | --- |
| Nc1ncnc2c1ncn2[C@@H]1O[C@H](COP(=O)(O)OP(=O)(O)OP(=O)(O)O)[C@@H](O)[C@H]1O [ATP] | 71 |  |
| Nc1ncnc2c1ncn2[C@@H]1O[C@H](COP(=O)(O)OP(=O)(O)O)[C@@H](O)[C@H]1O [ADP] |  | 9 |
